# Measured values taken from US9238670B2, “Aminoglycoside antibiotics with reduced ototoxicity” (priority 2013, dated 2016).
# Where two headings read alike, the source gives them in different places.
# Legend:
# [1] = system: hair cells of cochlea organ of corti cultures; test: in vitro
# Protocol: For example, an ototoxicity test that can be used includes the steps of (1) treating organ of corti cultures with a compound of the invention and a parent aminoglycoside compound for a certain period of time (e.g., 1 hour), respectively; (2) washing and then culturing the treated tissue for some period of time (e.g., 2 days); (3) fixing and staining the tissue so that hair cell counts can be obtained; and (4) comparing the hair cell counts between the tissue treated by the compound of the invention and the tissue treated by the parent aminoglycoside compound.
# Ototoxicity was also assayed using cochlea organ of corti cultures. The cultures were made at 4 days post birth (P4), cultured for 1 day and then treated for 1 hour with test compound. The tissue was then washed and cultured for an additional two days at which time the tissue is fixed and stained so that hair cell counts could be obtained. This method is similar to that used previously in characterizing aminoglycoside ototoxicity (Alharazneh et al., 2011). Fixed regions at the apex, middle, and base of the cochlea were imaged and cell counts obtained. […] Data were quantified across cochlear regions for this same compound. Quantification was by counting the number of outer hair cells present over a given distance. […] A dose response curve was created for the parent compound as well as the tested novel aminoglycoside. […] Other sisomicin derivatives were also tested for ototoxicity.
# [2] = system: mouse; settings: in vivo
# [3] = system: E. coli; test: E. coli assay of minimal inhibitory (MIC) and minimal bactericidal (MBC) concentrations; assay type: cell-based; settings: FIGS. 1A and 1B
# Protocol: FIGS. 1A and 1B are bar graphs showing antimicrobial activities of a variety of sisomicin derivatives (MS=methyl sulfonyl, PS=phenyl sulfonyl, BZ=benzoyl, SiRho=rhodamine; and 1N and 3″ indicate substituents' position on sisomicin). The negative values reflect an arbitrary value indicating no detectable level of activity.
# Both antimicrobial activity and ototoxicity in several of the synthesized compounds were assessed. To test antimicrobial activity, an E. coli assay was used to test both minimal inhibitory concentrations (MIC) as well as minimal bactericidal concentrations (MBC). A cross section of results was presented in FIG. 1, for control and a variety of tested compounds. […] Antimicrobial activity remained stable for each compound over time.
# [4] = system: mouse; test: LD50 after intraperitoneal injection in mouse model; assay type: in vivo; settings: FIG. 5
smiles,measurement,setting,value
"CN[C@@H]1[C@@H](O)[C@@H](O[C@@H]2[C@@H](O)[C@H](O[C@H]3OC(CN)=CC[C@H]3N)[C@@H](N)C[C@H]2N)OC[C@]1(C)O [sisomicin, reference compound]",Kd at 1 h,[1],120 µM
same,hair cells in stained tissue (FIG. 2),[1],no hair cells remained
same,"outer hair cells killed, apex of cochlea",[1]; 1 h,about 60%
same,"outer hair cells killed, base and middle of cochlea",[1]; 1 h,more than 90%
same,hair cell loss in histological preparations of the cochlea,[2],significant hair cell loss
"CN(C(=O)c1ccccc1)[C@@H]1[C@@H](O)[C@@H](O[C@@H]2[C@@H](O)[C@H](O[C@H]3OC(CN)=CC[C@H]3N)[C@@H](N)C[C@H]2N)OC[C@]1(C)O [3″N-benzoyl sisomicin, 3″-Benzoyl sisomicin]",less toxic than sisomicin (ototoxicity),[1]; 1 h,about 60%
"CN[C@@H]1[C@@H](O)[C@@H](O[C@@H]2[C@@H](O)[C@H](O[C@H]3OC(CN)=CC[C@H]3N)[C@@H](N)C[C@H]2NS(=O)(=O)c2ccccc2)OC[C@]1(C)O [1N phenyl sulfonyl sisomicin, 1-Benzenesulfonyl-sisomicin]",less toxic than sisomicin (ototoxicity),[1]; 1 h,about 80%
"CN[C@@H]1[C@@H](O)[C@@H](O[C@@H]2[C@@H](O)[C@H](O[C@H]3OC(CN)=CC[C@H]3N)[C@@H](N)C[C@H]2NC(=O)c2ccccc2)OC[C@]1(C)O [1N benzoyl sisomicin, 1-benzoyl sisomicin]",less toxic than sisomicin (ototoxicity),[1]; 1 h,30%
"CN[C@@H]1[C@@H](O)[C@@H](O[C@@H]2[C@@H](O)[C@H](O[C@H]3OC(CN)=CC[C@H]3N)[C@@H](N)C[C@H]2NS(C)(=O)=O)OC[C@]1(C)O [1N-methyl sulfonyl sisomicin, 1-N-methylsulfonyl sisomicin]","antimicrobial activity (MIC, MBC)",[3],retained antimicrobial activity
same,Kd at 1 h,[1],1500 µM
same,fold less toxic than the parent compound,[1],more than ten-fold shift in sensitivity for toxicity
same,hair cell loss at any of the cochlea regions tested,[1],did not cause any hair cell loss
same,hair cells in stained tissue (FIG. 2),[1],no hair cell loss
same,fold less toxic than the parent compound,[1]; 1 h,more than 10 ×
same,LD50 relative to LD50 of the parent sisomicin (fold higher),[4],3 ×
same,hair cell loss in histological preparations of the cochlea,[2],no loss of hair cells
"CN([C@@H]1[C@@H](O)[C@@H](O[C@@H]2[C@@H](O)[C@H](O[C@H]3OC(CN)=CC[C@H]3N)[C@@H](N)C[C@H]2NS(C)(=O)=O)OC[C@]1(C)O)S(C)(=O)=O [1N,3″N-methyl sulfonyl sisomicin, 1,3″-N-bis-methylsulfonyl sisomicin]",ototoxicity compared in words,[1]; 1 h,about equally non-ototoxic as 1N-methyl sulfonyl sisomicin
"CN([C@@H]1[C@@H](O)[C@@H](O[C@@H]2[C@@H](O)[C@H](O[C@H]3OC(CN)=CC[C@H]3N)[C@@H](N)C[C@H]2N)OC[C@]1(C)O)S(=O)(=O)c1ccccc1 [3″N-phenyl sulfonyl sisomicin, 3″-benzenesulfonyl-sisomicin]",ototoxicity compared in words,[1],about equally ototoxic as sisomicin
"CN([C@@H]1[C@@H](O)[C@@H](O[C@@H]2[C@@H](O)[C@H](O[C@H]3OC(CN)=CC[C@H]3N)[C@@H](N)C[C@H]2NS(=O)(=O)c2ccccc2)OC[C@]1(C)O)S(=O)(=O)c1ccccc1 [1N,3″N-phenyl sulfonyl sisomicin, 1,3″-dibenzenesulfonyl-sisomicin]",ototoxicity compared in words,[1],about equally ototoxic as sisomicin
"CN([C@@H]1[C@@H](O)[C@@H](O[C@@H]2[C@@H](O)[C@H](O[C@H]3OC(CN)=CC[C@H]3N)[C@@H](N)C[C@H]2N)OC[C@]1(C)O)S(C)(=O)=O [3″N-methyl sulfonyl sisomicin, 3″-methylsulfonyl sisomicin]",ototoxicity compared in words,[1]; 1 h,about equally non-ototoxic as 1N-methyl sulfonyl sisomicin
